Assay results reported in patent US6710064B2, “Hydantoin compounds useful as anti-inflammatory agents” (Bristol-Myers Squibb Co., priority 2000, dated 2004).

O=C1[C@H]2C[C@@H](OCc3ccc(Br)cc3)CN2C(=O)N1c1cc(Cl)cc(Cl)c1 [Example 6, (7aR,6R)-2-(3,5-dichloro-phenyl)-6-(4-bromobenzyloxy)-tetrahydro-pyrrolo[1,2-c]imidazole-1,3-dione]
melting point: 135 °C
